Laboratory results: patent publication US8389739B1, “Modulators of retinoid-related orphan receptor gamma” (Orphagen Pharmaceuticals, priority 2006, dated 2013)
“Also recorded” adds a separate entry of the source. Read-outs that look alike come from different tables or passages of the source.

Key:
[1] = system: TH-17 cell differentiation from naïve CD4+ T cells; test: Differentiation of naïve CD4+ T cells, intracellular IL-17/IFN-γ staining by FACS (TH-17 protocol, TGFβ + IL-6); format: cell-based, mouse; settings: for Cell Frequency (%) Th-17 Differentiation IFN-γ^+ / Cell Frequency (%) Th-17 Differentiation IL-17^+: Table 11, 3 μM; for Cell Frequency (%) Th-17 Differentiation IFN-γ^+: DMSO vehicle 1.03%; for Cell Frequency (%) Th-17 Differentiation IL-17^+: DMSO vehicle 3.81%
[2] = system: human IL-17 release from PBMCs; test: Human IL-17 release from Con A stimulated PBMCs (ELISA); format: cell-based; settings: 1 μg/ml Con A, 3 days; for Con A stimulated IL-17 release into culture medium: 3 μM; for reversal of antagonist effect on IL-17 release by agonist: 3 μM each
From the text: We also investigated whether human IL-17 is subject to regulation by RORγ ligands.

[3] = molecular target: T1, hVDR (Vitamin D receptor) (Homo sapiens, UniProt P11473); test: Crossreactive receptor transcriptional assay (Gal4 hybrid); format: cell-based
T1 construct: 90-427; expressed in transfected cells; host or cells: CHO cells, transient transfection
T1 sequence (P11473 90-427): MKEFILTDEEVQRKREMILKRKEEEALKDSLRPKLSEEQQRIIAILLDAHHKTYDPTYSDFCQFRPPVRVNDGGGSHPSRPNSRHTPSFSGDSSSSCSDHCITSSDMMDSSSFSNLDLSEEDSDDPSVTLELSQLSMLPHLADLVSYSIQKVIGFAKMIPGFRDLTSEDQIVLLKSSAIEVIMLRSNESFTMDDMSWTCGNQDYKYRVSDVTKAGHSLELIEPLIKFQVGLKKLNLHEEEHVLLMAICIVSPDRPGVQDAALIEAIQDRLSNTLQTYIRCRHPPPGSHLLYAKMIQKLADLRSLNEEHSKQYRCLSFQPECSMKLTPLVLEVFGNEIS
Protocol: (§1) A firefly luciferase reporter gene for Gal4 DBD hybrid receptors, such as Gal4-RORγ, contains five copies of the Gal4 17-mer response element in its promoter and the coding sequence for firefly luciferase (pG5-luc, Promega). CHO (Chinese Hamster Ovary) cells were cultured in Ham's F12 medium supplemented with 10% fetal calf serum (Gemini Biologicals), 10 μg/ml penicillin and streptomycin, and were maintained in a humidified 37° C. incubator (Thermo Electron, Steri-Cycle) with 5% CO2. 24 hours before transfection, cells were plated in T175 flasks (5×10^6 cells/flask) or T75 flasks (1.7×10^6 cells/flask).
Plates are maintained at 37° C. in a humidified atmosphere with 7% CO2 overnight. […] Approximately 40 hours later, cytotoxicity in the assay well was characterized by addition of the dye resazurin (O'Brien, Wilson et al. 2000) to a final concentration of 3 μM. […] Percent viability was determined as 2 hour fluorescence, minus background at t=0 hours, normalized to DMSO controls. For detection of luciferase activity, media was removed from plates after the measurement of resazurin conversion, and SteadyLite luciferase reagent (Perkin-Elmer) was added (30 μl/well). Luminescence is detected with a Victor 2-V plate reader (Perkin-Elmer) and normalized to luciferase activity of DMSO control wells alone.

human RORγ = molecular target: T2, human RORγ (Homo sapiens, UniProt P51449); test: Transcriptional assay of human RORγ (Gal4-hRORγ); format: cell-based; settings: Table 4B
T2 construct: expressed in transfected cells; host or cells: CHO cells, transient transfection
T2 sequence (P51449 253-518): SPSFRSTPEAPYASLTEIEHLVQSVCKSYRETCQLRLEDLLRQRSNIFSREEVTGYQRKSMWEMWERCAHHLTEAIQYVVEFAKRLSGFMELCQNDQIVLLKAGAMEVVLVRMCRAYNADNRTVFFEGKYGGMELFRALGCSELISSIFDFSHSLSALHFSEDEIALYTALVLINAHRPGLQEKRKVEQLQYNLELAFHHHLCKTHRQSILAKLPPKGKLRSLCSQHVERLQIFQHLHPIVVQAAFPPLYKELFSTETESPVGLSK
Protocol: The complete Gal4-hRORγ nucleotide sequence is shown below:
as §1, with “cells/flask). Transient transfection of CHO cells was performed using TransIT-CHO reagents (Minis, Madison, Wis.) with a mixing ratio of 2:6:1 between plasmid DNA (in μg), TransIT-CHO (in μl) and CHO-mojo (in μl).” for “cells/flask).”
Plates are maintained at 37° C. in a humidified atmosphere with 7% CO2 overnight. Four (4) hours after cell seeding, compounds dissolved in DMSO at 10 mM were added to cells at final concentrations of 20 micromolar (μM) to 20 nanomolar (nM) in 0.2% DMSO in triplicate plates. Approximately 40 hours later, cytotoxicity in the assay well was characterized by addition of the dye resazurin (O'Brien, Wilson et al. 2000) to a final concentration of 3 μM. […] Percent viability was determined as 2 hour fluorescence, minus background at t=0 hours, normalized to DMSO controls. For detection of luciferase activity, media was removed from plates after the measurement of resazurin conversion, and SteadyLite luciferase reagent (Perkin-Elmer) was added (30 μl/well). Luminescence is detected with a Victor 2-V plate reader (Perkin-Elmer) and normalized to luciferase activity of DMSO control wells alone.

[4] = system: IL-22 release in lymph node cultures; test: Lymph node cell cultures from MOG-immunized C57BL/6 mice, IL-22 ELISA; format: cell-based
Protocol: FIGS. 15A-B. IL-22 release in lymph node cultures is regulated by RORγ ligands. Lymph node cells from MOG-immunized C57BL/6 mice were cultured for 3 days with 30 μg/ml MOG, […] IL-23 (FIG. 15A) and 3 μM compounds (FIG. 15B). Culture media were analyzed by IL-22 ELISA.
ELISA kits for mouse IL-17 and human IL-17 were from eBioscience (San Diego, Calif.). ELISA assays were performed following the manufacturer's protocol. Certain samples were diluted 20-fold to avoid maximization of enzymatic signals. For mouse IL-22 ELISA, antibodies and standards were from Antigenix America (Huntington Station, N.Y.) and accessory components were from eBioscience. The IL-22 assay protocol was similar to that of the IL-17 assays.
The proinflammatory cytokine IL-22 is also expressed in Th-17 cells. […] In addition, IL-22 seems to have 30-50 fold higher levels than IL-17. […] This is illustrated in FIG. 15.

[5] = system: TH1 cell differentiation from naïve CD4+ T cells; test: Differentiation of naïve CD4+ T cells with IL-12 (Th-1 protocol), IFN-γ staining by FACS; format: cell-based, mouse; settings: for effect on TH1 cell differentiation: in the presence of IL-12
[6] = Table 6, read-out: Potency (EC50) at hVDR
[7] = Table 9, 3 μM (combination 3 μM each), 4 ng/ml TGFβ and 20 ng/ml IL-6, DMSO 2.32%
[8] = Table 9, 3 μM (combination 3 μM each), DMSO 1.60%
[9] = Table 9, 3 μM (combination 3 μM each), 10 ng/ml IL-12, DMSO 36.3%

CC(=O)O[C@H]1CC[C@@]2(C)C(CC[C@]3(C)C2C(=O)C=C2C4[C@@H](C)[C@H](C)CC[C@]4(C(=O)O)CC[C@]23C)C1(C)C (stereo in doubt) [OR-13571, 10-Acetoxy-1,2,6a,6b,9,9,12a-heptamethyl-13-oxo-1,3,4,5,6,6a,6b,7,8,8a,9,10,11,12,12a,12b,13,14b-octadecahydro-2H-picene-4a-carboxylic acid]
effect on TH-17 cell differentiation [1]: exerted a similar effect on TH-17 differentiation as OR-885 and OR-1050; also recorded: inhibits TH-17 differentiation
Cell Frequency (%) Th-17 Differentiation IFN-γ^+ [1]: 0.93%
Cell Frequency (%) Th-17 Differentiation IL-17^+ [1]: 1.42%
Con A stimulated IL-17 release into culture medium [2]: inhibited
EC50 [3, 6]: > 10 µM
EC50 (human RORγ): 0.2 µM

O=S(=O)(c1ccccc1)N(CC(F)(F)F)c1ccc(C(O)(C(F)(F)F)C(F)(F)F)cc1 [Compound T0901317, N-(2,2,2-Trifluoro-ethyl)-N-[4-(2,2,2-trifluoro-1-hydroxy-1-trifluoromethyl-ethyl)-phenyl]-benzenesulfonamide, reference compound]
EC50 [3, 6]: > 10 µM

C[C@@H]1CC[C@@]2(OC1)O[C@H]1C[C@H]3[C@@H]4CC[C@H]5C[C@@H](O)CC[C@]5(C)[C@H]4C[C@@H](O)[C@]3(C)[C@H]1[C@@H]2C [OR-885, 5α,20α, 22α, 25D-SPIROSTAN-3β, 12β-DIOL]
Cell Frequency (%) TH-17 Protocol IFN-γ^+ [1]: 1.45%
Cell Frequency (%) TH-17 Protocol IL-17^+ [1]: 0.52%
effect on TH-17 cell differentiation [1]: blocks the differentiation of TH-17 cells
reversal of antagonist effect on IL-17 release by agonist [2]: partially reversible by OR-12872
EC50 [3]: > 10 µM
IL-22 production in LN cultures [4]: inhibited
Cell Frequency (%) Th-1 Protocol IFN-γ^+ ([5]; Table 10, 3 μM, DMSO vehicle 29.7%): 34.2%
EC50 (human RORγ): 5.1 µM
EC50 (μM), transcriptional assay of human RORγ (human RORγ): significantly less potent at hRORγ

CCN(c1ccc(C(O)(C(F)(F)F)C(F)(F)F)cc1)S(=O)(=O)c1ccc([N+](=O)[O-])cc1 [OR-1050, N-Ethyl-4-nitro-N-[4-(2,2,2-trifluoro-1-hydroxy-1-trifluoromethyl-ethyl)-phenyl]-benzenesulfonamide]
effect on TH-17 cell differentiation [1]: significantly inhibited TH-17 cell differentiation in a dose-dependent manner; also recorded: decreases the proportion of IL-17^+ cells
Cell Frequency (%) TH-17 Protocol IL-17^+ [1, 7]: 0.44%
Cell Frequency (%) TH-17 Protocol IFN-γ^+ [1, 8]: 1.42%
Cell Frequency (%) Th-17 Differentiation IFN-γ^+ [1]: 1.09%
Cell Frequency (%) Th-17 Differentiation IL-17^+ [1]: 1.47%
Con A stimulated IL-17 release into culture medium [2]: inhibited
EC50 [3, 6]: > 10 µM
IL-22 production in LN cultures ([4]; 3 μM each (FIG. 15)): inhibited
Cell Frequency (%) Th-1 Protocol IFN-γ^+ [5, 9]: 37.4%
effect on TH1 cell differentiation ([5]; 3 μM): does not inhibit TH1 differentiation
EC50 (human RORγ): 0.4 µM

COc1c(C=NNc2nc(N3CCCCC3)nc(N3CCCCC3)n2)cccc1[N+](=O)[O-] [OR-2161, N-(4,6-Di-piperidin-1-yl-[1,3,5]triazin-2-yl)-N′-(2-methoxy-3-nitro-benzylidene)-hydrazine]
EC50 [3, 6]: > 10 µM
EC50 (human RORγ): 1 µM

COC(C)CCC(C)C1CCC2C3CC(O)C4CC(O)CCC4(C)C3CCC12C (stereo not drawn) [OR-12872, 17-(4-Methoxy-1-methyl-pentyl)-10,13-dimethyl-hexadecahydro-cyclopenta[a]phenanthrene-3,6-diol]
effect on TH-17 cell differentiation [1]: stimulatory; also recorded: able to reverse the effect of OR-1050; also recorded: increases the fraction of IL-17^+ cells
elevation of TH-17 frequency by agonist alone ([1]; 3 μM (FIG. 8)): 60%
increase of TH-17 frequency from the lower baseline produced by OR-1050 ([1]; 3 μM agonist in the presence of 3 μM OR-1050 (FIG. 8)): 400%
Cell Frequency (%) TH-17 Protocol IL-17^+ [1, 7]: 3.91%
Cell Frequency (%) TH-17 Protocol IFN-γ^+ [1, 8]: 1.37%
Cell Frequency (%) TH-17 Protocol IFN-γ^+ ([1]; Table 10, 1 μM, DMSO vehicle 0.71%): 0.65%
Cell Frequency (%) TH-17 Protocol IL-17^+ ([1]; Table 10, 1 μM, DMSO vehicle 2.46%): 3.96%
reversal of antagonist effect on IL-17 release by agonist [2]: partly reverse the effects of OR-1050 and OR-13571
Con A stimulated IL-17 release into culture medium [2]: does not significantly alter IL-17 release
EC50 [3, 6]: > 10 µM
IL-22 production in LN cultures ([4]; 3 μM each (FIG. 15)): enhanced
Cell Frequency (%) Th-1 Protocol IFN-γ^+ [5, 9]: 41.4%
Cell Frequency (%) Th-1 Protocol IFN-γ^+ ([5]; Table 10, 1 μM, DMSO vehicle 29.7%): 30.8%
effect on TH1 cell differentiation ([5]; 3 μM): Neither 3 μM OR-1050 nor 3 μM OR-12872 had an effect on the frequency of TH1 cell differentiation

CCn1c(CNc2ccc(Cl)cc2)nnc1SCC(=O)Nc1cccc2ccccc12 [OR-133008, 2-{5-[(4-Chloro-phenylamino)-methyl]-4-ethyl-4H-[1,2,4]triazol-3-ylsulfanyl}-N-naphthalen-1-yl-acetamide]
EC50 [3, 6]: > 10 µM
EC50 (human RORγ): 6.8 µM
